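Cultured in 96-well plates, cells were exposed to test compound for 48 hours across five concentrations. GI50 = concentration required for 50% inhibition of growth. TGI denotes the concentration required for complete inhibition of growth.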
Tests used:
Assay in all cases: NCI anticancer screen, dose series, 48 h
A549 NSCLC = test system: A549 NSCLC
SK-OV-3 ovarian = test system: SK-OV-3 ovarian
OVCAR-8 ovarian = test system: OVCAR-8 ovarian
SR leukemia = test system: SR leukemia
HOP-62 NSCLC = test system: HOP-62 NSCLC
HCC-2998 colon = test system: HCC-2998 colon
HCT-15 colon = test system: HCT-15 colon
COLO 205 colon = test system: COLO 205 colon
NCI-H460 lung = test system: NCI-H460 lung
CCRF-CEM leukemia = test system: CCRF-CEM leukemia

| Structure (SMILES) | GI50 (A549 NSCLC) | TGI (A549 NSCLC) | GI50 (SK-OV-3 ovarian) | TGI (SK-OV-3 ovarian) | GI50 (OVCAR-8 ovarian) | TGI (OVCAR-8 ovarian) | GI50 (SR leukemia) | TGI (SR leukemia) | GI50 (HOP-62 NSCLC) | TGI (HOP-62 NSCLC) | GI50 (HCC-2998 colon) | TGI (HCC-2998 colon) | GI50 (HCT-15 colon) | TGI (HCT-15 colon) | GI50 (COLO 205 colon) | TGI (COLO 205 colon) | GI50 (NCI-H460 lung) | TGI (NCI-H460 lung) | GI50 (CCRF-CEM leukemia) | TGI (CCRF-CEM leukemia) |
| --- | --- | --- | --- | --- | --- | --- | --- | --- | --- | --- | --- | --- | --- | --- | --- | --- | --- | --- | --- | --- |
| O=C(/C(=C/c1ccc([N+](=O)[O-])cc1)SCc1ccc(Cl)cc1)c1ccc(F)cc1 | 49.5 µM | > 100 µM | 16.6 µM | 63.5 µM | 3.17 µM | 12.7 µM | 2.01 µM | > 26.5 µM | 13.1 µM | 35.4 µM | 2.39 µM | 5.41 µM | 1.9 µM | 4.26 µM | 3.8 µM | 14.9 µM | 5.79 µM | 24.7 µM | 1.97 µM | > 100 µM |
| CCOC(=O)Nc1nc2ccc(Br)cc2s1 | > 50 µM | > 50 µM | > 50 µM | > 50 µM | > 50 µM | > 50 µM | > 50 µM | > 50 µM | > 50 µM | > 50 µM | > 50 µM | > 50 µM | > 50 µM | > 50 µM | > 50 µM | > 50 µM | > 50 µM | > 50 µM | > 50 µM | > 50 µM |
| O=C(NCc1cccnc1)C1COc2cc(-c3cc(=O)c4ccccc4o3)ccc2O1 (centres undefined) |  | > 100 µM |  | > 100 µM |  | > 55 µM |  | > 100 µM |  | 24.8 µM |  | > 100 µM |  | > 100 µM |  | > 100 µM |  | > 100 µM |  | > 100 µM |
| CN1CCC2(CC1)NC(=O)c1c(c3ccc(Cl)c(Cl)c3n1C)C2C#N (centres undefined) | 7.33 µM | 24.6 µM | 14.9 µM | 32 µM | 10.4 µM | 36.6 µM | 1.65 µM | 5.36 µM | 9.72 µM | 23.2 µM | 1.89 µM | 3.95 µM | 3.98 µM | 15.6 µM | 1.8 µM | 3.83 µM | 2.75 µM | 14.3 µM | 6.32 µM | > 54.8 µM |
| CCCCC(C(=O)CCC(=O)Nc1ccc(Cl)c(Cl)c1)C(=O)C(C)C (centres undefined) |  | > 100 µM |  | > 100 µM |  | > 100 µM |  | > 100 µM |  | > 100 µM |  | > 100 µM |  | > 100 µM |  | > 100 µM |  | > 100 µM |  | > 100 µM |
| CCCCCCCCCCCC(=O)N1CCN(C(C)=O)CC1 | 28 µM | > 100 µM | 20.7 µM | 39.7 µM | 29.3 µM | > 100 µM | 22 µM | 53.5 µM | 18.1 µM | 36.4 µM | 14.8 µM | 28.1 µM | 40.2 µM | > 100 µM | 18.1 µM | 33.6 µM | 19.8 µM | 38.1 µM | 18.7 µM | 40.6 µM |
| C[C@]12CC[C@@H]3c4cc(OC(F)F)c(OS(N)(=O)=O)cc4CC[C@H]3[C@@H]1CC[C@@H]2OS(N)(=O)=O | 2.52 µM | 34.4 µM | 6.14 µM | 33.2 µM | 1.74 µM | > 59 µM | 0.441 µM | > 100 µM | 3.4 µM | 38.8 µM | 3.88 µM | 17.3 µM | 0.593 µM | 15.8 µM | 2.97 µM | 21.4 µM | 1.45 µM | 15.4 µM |  | > 70.7 µM |
